This note sets out measurements from patent US10280165B2, “Pyridopyrimidinones and methods of use thereof” (Genentech, Inc., priority 2015, dated 2019).

This assay has as its target HEK cells stably transfected with tetracycline inducible hNR1 and hNR2A (Homo sapiens (Human), UniProt Q05586+Q12879). As to the kind of experiment: Assay 1: Cell-Based Assay (cytosolic calcium, positive allosteric modulation). As to conditions: for Emax: HEK293, scaled relative to 100 μM L-glutamate maximal response (100%) and 0 μM L-glutamate (0%), with 30 μM glycine and 300 nM L-glutamate, read-out: Max %; for EC50: with 30 μM glycine and 300 nM L-glutamate (EC30), given for compounds reaching maximal response plateaus. On the procedure: Assay 1: Cell-Based Assay
HEK cells stably transfected with tetracycline inducible hNR1 and hNR2A were seeded into clear bottom 384 well poly-D-lysine coated plates (2.5×10^4 cells per well) in Minimum Essential Media (MEM; without L-) including 7.5 μg mL doxycycline and 500 μM (+)-ketamine. The cells were incubated at 37° C. in 5% CO2 for 24 h. For measurement of changes in cytosolic calcium, the seeding media was removed and the cells incubated at 37° C. for 60 min with 1× Becton Dickinson Calcium Assay Kit reagent in Hanks Balanced Salt Solution (HBSS; w/o magnesium, including 1.8 mM calcium, 0.65 mg ml^−1 probenecid and 10 μM (+)-ketamine, pH 7.15) then allowed to equilibrate to rt for 30 min. Concentration-effect curves to Positive Allosteric Modulators (PAMs) were constructed by adding different concentrations (with 30 μM glycine and 300 nM L-glutamate (EC30)) to different wells in HBSS. Compounds were added after a 10 second baseline read and maximum level of relative fluorescence units (RFU) was measured over a 5 min period. Responses were scaled relative to 100 μM L-glutamate maximal response (100%) and 0 μM L-glutamate (0%). EC50 values are provided for compounds reaching maximal response plateaus, and the max % (EC50 (--)) only if no plateau was reached.
A four-parameter Hill equation was fitted to individual concentration-effect curves:
[formula] in which Y, S0, Sinf, AC50, n and c were effect, lower-asymptote, upper-asymptote, mid-point location, slope parameter, and concentration respectively.

Sequence of HEK cells stably transfected with tetracycline inducible hNR1 and hNR2A (Q12879 23-1464, other chains not shown): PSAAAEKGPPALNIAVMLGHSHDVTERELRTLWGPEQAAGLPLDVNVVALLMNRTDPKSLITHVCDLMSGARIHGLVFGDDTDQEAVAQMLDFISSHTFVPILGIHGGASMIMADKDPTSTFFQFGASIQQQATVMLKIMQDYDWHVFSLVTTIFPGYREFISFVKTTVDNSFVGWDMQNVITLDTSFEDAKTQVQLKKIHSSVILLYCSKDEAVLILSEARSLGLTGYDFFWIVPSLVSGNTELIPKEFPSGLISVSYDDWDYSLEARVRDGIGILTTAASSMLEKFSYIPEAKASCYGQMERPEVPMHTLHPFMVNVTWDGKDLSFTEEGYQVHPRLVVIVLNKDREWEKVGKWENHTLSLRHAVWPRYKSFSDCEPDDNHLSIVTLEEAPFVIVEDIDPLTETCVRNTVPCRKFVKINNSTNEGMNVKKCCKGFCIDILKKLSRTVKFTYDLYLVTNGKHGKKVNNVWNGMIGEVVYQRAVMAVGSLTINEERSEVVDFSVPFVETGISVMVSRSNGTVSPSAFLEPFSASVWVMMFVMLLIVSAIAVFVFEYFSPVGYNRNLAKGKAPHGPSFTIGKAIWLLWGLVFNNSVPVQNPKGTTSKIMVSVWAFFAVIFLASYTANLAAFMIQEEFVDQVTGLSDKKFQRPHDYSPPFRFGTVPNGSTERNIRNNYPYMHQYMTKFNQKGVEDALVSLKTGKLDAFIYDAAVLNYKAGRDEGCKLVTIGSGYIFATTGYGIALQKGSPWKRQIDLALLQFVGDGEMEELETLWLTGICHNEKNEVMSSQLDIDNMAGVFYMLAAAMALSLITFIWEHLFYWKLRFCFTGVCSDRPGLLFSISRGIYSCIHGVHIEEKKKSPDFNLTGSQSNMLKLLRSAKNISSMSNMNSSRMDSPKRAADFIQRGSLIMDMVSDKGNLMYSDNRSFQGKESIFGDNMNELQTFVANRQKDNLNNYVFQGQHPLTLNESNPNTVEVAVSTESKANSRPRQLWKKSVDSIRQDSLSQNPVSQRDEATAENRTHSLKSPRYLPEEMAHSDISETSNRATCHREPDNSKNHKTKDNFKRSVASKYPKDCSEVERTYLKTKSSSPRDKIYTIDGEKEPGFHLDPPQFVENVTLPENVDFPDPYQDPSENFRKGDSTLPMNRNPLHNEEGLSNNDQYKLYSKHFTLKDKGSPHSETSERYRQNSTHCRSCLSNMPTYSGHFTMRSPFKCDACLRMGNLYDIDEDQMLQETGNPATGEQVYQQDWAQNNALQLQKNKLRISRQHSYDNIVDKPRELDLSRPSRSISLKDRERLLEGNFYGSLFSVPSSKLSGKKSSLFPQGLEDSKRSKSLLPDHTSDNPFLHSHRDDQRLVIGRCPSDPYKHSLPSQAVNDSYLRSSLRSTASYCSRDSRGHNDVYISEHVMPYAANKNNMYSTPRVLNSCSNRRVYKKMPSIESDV

Consider `N#C[C@@H]1C[C@H]1c1c(F)ccc2nc(Cn3nc(C(F)(F)F)cc3Cl)cc(=O)n12` [Compound 45, (1R,2R)-2-[2-[[5-chloro-3-(trifluoromethyl)pyrazol-1-yl]methyl]-7-fluoro-4-oxo-pyrido[1,2-a]pyrimidin-6-yl]cyclopropanecarbonitrile], for which the Emax turned out to be 151%.
One may read the EC50 as the concentration that produces a half-maximal response. `N#C[C@H]1C[C@@H]1c1c(F)ccc2nc(Cn3nc(C(F)(F)F)cc3Cl)cc(=O)n12` [Compound 46, (1S,2S)-2-[2-[[5-chloro-3-(trifluoromethyl)pyrazol-1-yl]methyl]-7-fluoro-4-oxo-pyrido[1,2-a]pyrimidin-6-yl]cyclopropanecarbonitrile]: the Emax is 107% and the EC50 was 3.22 µM.
For `N#CC1CC1c1c(F)ccc2nc(Cn3nc(Cl)cc3C(F)(F)F)cc(=O)n12` (stereo not drawn) [Compound 47, 2-[2-[[3-chloro-5-(trifluoromethyl)pyrazol-1-yl]methyl]-7-fluoro-4-oxo-pyrido[1,2-a]pyrimidin-6-yl]cyclopropanecarbonitrile], in that order: 200% and 0.178 µM.
For `O=c1cc(Cn2nc(C(F)(F)F)cc2Cl)nc2ccccn12` [Compound 48, 2-[[5-chloro-3-(trifluoromethyl)pyrazol-1-yl]methyl]pyrido[1,2-a]pyrimidin-4-one], in that order: 73% and 32.4 µM.
As for `CC(=O)c1cccc2nc(Cn3nc(C(F)(F)F)cc3Cl)cc(=O)n12` [Compound 49, 6-acetyl-2-[[5-chloro-3-(trifluoromethyl)pyrazol-1-yl]methyl]pyrido[1,2-a]pyrimidin-4-one], the Emax came out at 126% and the EC50 was 12.3 µM.
For `CC(=O)c1c(C)ccc2nc(Cn3nc(C(F)(F)F)cc3Cl)cc(=O)n12` [Compound 50, 6-acetyl-2-[[5-chloro-3-(trifluoromethyl)pyrazol-1-yl]methyl]-7-methyl-pyrido[1,2-a]pyrimidin-4-one], in that order: 124% and 7.7 µM.
Regarding `CC(=O)c1c(C)ccc2nc(Cn3nc(Cl)cc3C(F)(F)F)cc(=O)n12` [Compound 51, 6-acetyl-2-[[3-chloro-5-(trifluoromethyl)pyrazol-1-yl]methyl]-7-methyl-pyrido[1,2-a]pyrimidin-4-one], the Emax turned out to be 114% and the EC50 was 9.1 µM.
For `COc1ccc2nc(Cn3nc(C(F)(F)F)cc3Cl)cc(=O)n2c1[C@@H]1C[C@H]1C#N` [Compound 52, (1R,2R)-2-[2-[[5-chloro-3-(trifluoromethyl)pyrazol-1-yl]methyl]-7-methoxy-4-oxo-pyrido[1,2-a]pyrimidin-6-yl]cyclopropanecarbonitrile], in that order: 120% and 0.079 µM.
For `COc1ccc2nc(Cn3nc(C(F)(F)F)cc3Cl)cc(=O)n2c1[C@H]1C[C@@H]1C#N` [Compound 53, (1S,2S)-2-[2-[[5-chloro-3-(trifluoromethyl)pyrazol-1-yl]methyl]-7-methoxy-4-oxo-pyrido[1,2-a]pyrimidin-6-yl]cyclopropanecarbonitrile], the Emax is 100%.
For `O=c1cc(Cn2nc(C(F)(F)F)cc2Cl)nc2cc(C(F)(F)F)cc(Cl)n12` [Compound 54, 6-chloro-2-[[5-chloro-3-(trifluoromethyl)pyrazol-1-yl]methyl]-8-(trifluoromethyl)pyrido[1,2-a]pyrimidin-4-one], the Emax stood at 150% and the EC50 was 24.7 µM.
Consider `COc1ccc2nc(Cn3nc(Cl)cc3Cl)cc(=O)n2c1C1CC1C` (stereo not drawn) [Compound 55, 2-((3,5-dichloro-1H-pyrazol-1-yl)methyl)-7-methoxy-6-(2-methylcyclopropyl)-4H-pyrido[1,2-a]pyrimidin-4-one], for which the Emax amounted to 116% and the EC50 is 0.102 µM.
For `N#C[C@@H]1C[C@H]1c1cc(C(F)(F)F)cc2nc(Cn3nc(C(F)(F)F)cc3Cl)cc(=O)n12` [Compound 56, (1R,2R)-2-(2-((5-chloro-3-(trifluoromethyl)-1H-pyrazol-1-yl)methyl)-4-oxo-8-(trifluoromethyl)-4H-pyrido[1,2-a]pyrimidin-6-yl)cyclopropanecarbonitrile], in that order: 142% and 0.123 µM.
In the case of `Cc1cc([C@@H]2C[C@H]2C#N)n2c(=O)cc(Cn3nc(Cl)cc3Cl)nc2c1` [Compound 57, (1R,2R)-2-(2-((3,5-dichloro-1H-pyrazol-1-yl)methyl)-8-methyl-4-oxo-4H-pyrido[1,2-a]pyrimidin-6-yl)cyclopropanecarbonitrile], the Emax came to 154% and the EC50 came out at 0.222 µM.
